From PubChem BioAssay AID1963968 (Molecular Pharmacology Branch, DTP, NCI, 2024)

Test system: 945468-187-T-J3-PDC spheroids with HUVEC/MSC, viability
Test: Anticancer human tumor 945468-187-T-J3-PDC patient-derived rectal carcinoma cell line growth inhibition [PI3K]
Conditions: for IC50: curve of first compound; for viability, T/C: stronger effect = lower value; active = viability on the fitted dose curve at most 10% of control; inactive = the rest
Summary of the method: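 Tumor cells were combined with HUVEC and MSCs into spheroids, then dosed with PI3K-inhibitor combinations over half-log ranges capped near clinical Cmax or 10 microM.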

[1] = second compound 0.00316 µM, first compound 0.0316 µM
[2] = second compound 0.00316 µM, first compound 0.1 µM
[3] = second compound 0.00316 µM, first compound 0.316 µM
[4] = second compound 0.00316 µM, first compound 1 µM
[5] = second compound 0.00316 µM, first compound 3.16 µM
[6] = second compound 0.00316 µM, first compound 10 µM
[7] = second compound 0.01 µM, first compound 0.0316 µM
[8] = second compound 0.01 µM, first compound 0.1 µM
[9] = second compound 0.01 µM, first compound 0.316 µM
[10] = second compound 0.01 µM, first compound 1 µM
[11] = second compound 0.01 µM, first compound 3.16 µM
[12] = second compound 0.01 µM, first compound 10 µM
[13] = second compound 0.0316 µM, first compound 0.0316 µM
[14] = second compound 0.0316 µM, first compound 0.1 µM
[15] = second compound 0.0316 µM, first compound 0.316 µM
[16] = second compound 0.0316 µM, first compound 1 µM
[17] = second compound 0.0316 µM, first compound 3.16 µM
[18] = second compound 0.0316 µM, first compound 10 µM
[19] = second compound 0.1 µM, first compound 0.0316 µM
[20] = second compound 0.1 µM, first compound 0.1 µM
[21] = second compound 0.1 µM, first compound 0.316 µM
[22] = second compound 0.1 µM, first compound 1 µM
[23] = second compound 0.1 µM, first compound 3.16 µM
[24] = second compound 0.1 µM, first compound 10 µM
[25] = second compound 0.316 µM, first compound 0.0316 µM
[26] = second compound 0.316 µM, first compound 0.1 µM
[27] = second compound 0.316 µM, first compound 0.316 µM
[28] = second compound 0.316 µM, first compound 1 µM
[29] = second compound 0.316 µM, first compound 3.16 µM
[30] = second compound 0.316 µM, first compound 10 µM
[31] = second compound 1 µM, first compound 0.0316 µM
[32] = second compound 1 µM, first compound 0.1 µM
[33] = second compound 1 µM, first compound 0.316 µM
[34] = second compound 1 µM, first compound 1 µM
[35] = second compound 1 µM, first compound 3.16 µM
[36] = second compound 1 µM, first compound 10 µM
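Also: spheroids exposed to agents for 7 days before viability read.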
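For viability, T/C in this document: 100% = DMSO vehicle control viability.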

CC1(C)CCC(CN2CCN(c3ccc(C(=O)NS(=O)(=O)c4ccc(NCC5CCOCC5)c([N+](=O)[O-])c4)c(Oc4cnc5[nH]ccc5c4)c3)CC2)=C(c2ccc(Cl)cc2)C1 + COc1c(OCCCN2CCOCC2)ccc2c3n(c(=NC(=O)c4cnc(N)nc4)nc12)CCN3
1110 nM: IC50 (second compound 0.1 µM)
6080 nM: IC50 (second compound 0.01 µM)
6290 nM: IC50 (second compound 0.0316 µM)
< 31.6 nM: IC50 (second compound 0.316 µM) | IC50 (second compound 1 µM)
active: viability, T/C [6] 8% | viability, T/C [24] 8.54%
inactive: viability, T/C [1] 93.4% | viability, T/C [2] 106% | viability, T/C [3] 117% | viability, T/C [4] 91.1% | viability, T/C [5] 116% | viability, T/C [7] 103% | viability, T/C [8] 90.8% | viability, T/C [9] 93.1% | viability, T/C [10] 97.3% | viability, T/C [11] 119% | viability, T/C [12] 11.3% | viability, T/C [13] 107% | viability, T/C [14] 94% | viability, T/C [15] 114% | viability, T/C [16] 98.1% | viability, T/C [17] 106% | viability, T/C [18] 13.7% | viability, T/C [19] 54% | viability, T/C [20] 43.4% | viability, T/C [21] 50.4% | viability, T/C [22] 53% | viability, T/C [23] 48.5% | viability, T/C [25] 22.1% | viability, T/C [26] 20.7% | viability, T/C [27] 18.1% | viability, T/C [28] 24.3% | viability, T/C [29] 25.7% | viability, T/C [30] 5.28% | viability, T/C [31] 16.7% | viability, T/C [32] 17.9% | viability, T/C [33] 17.8% | viability, T/C [34] 19.7% | viability, T/C [35] 17.7% | viability, T/C [36] 3.81%
6060 nM: IC50 (second compound 0.00316 µM)

C[C@@H](NC(=O)c1ncnc(N)c1Cl)c1ncc(C(=O)Nc2cc(C(F)(F)F)c(Cl)cn2)s1 + COc1c(OCCCN2CCOCC2)ccc2c3n(c(=NC(=O)c4cnc(N)nc4)nc12)CCN3
> 10000 nM: IC50 (second compound 0.00316 µM) | IC50 (second compound 0.01 µM) | IC50 (second compound 0.0316 µM)
inactive: viability, T/C [1] 89.2% | viability, T/C [2] 101% | viability, T/C [3] 97.1% | viability, T/C [4] 104% | viability, T/C [5] 98.4% | viability, T/C [6] 95.9% | viability, T/C [7] 118% | viability, T/C [8] 91.7% | viability, T/C [9] 101% | viability, T/C [10] 99.3% | viability, T/C [11] 94.6% | viability, T/C [12] 90.3% | viability, T/C [13] 94.5% | viability, T/C [14] 101% | viability, T/C [15] 83.8% | viability, T/C [16] 95% | viability, T/C [17] 92% | viability, T/C [18] 102% | viability, T/C [19] 34.8% | viability, T/C [20] 42.1% | viability, T/C [21] 39% | viability, T/C [22] 45.5% | viability, T/C [23] 45.6% | viability, T/C [24] 51.8% | viability, T/C [25] 19.7% | viability, T/C [26] 22.8% | viability, T/C [27] 19.8% | viability, T/C [28] 18.2% | viability, T/C [29] 20.8% | viability, T/C [30] 21.4% | viability, T/C [31] 17.3% | viability, T/C [32] 17.7% | viability, T/C [33] 17.4% | viability, T/C [34] 16.1% | viability, T/C [35] 19% | viability, T/C [36] 19.9%
< 31.6 nM: IC50 (second compound 0.1 µM) | IC50 (second compound 0.316 µM) | IC50 (second compound 1 µM)

Cn1ncnc1[C@H]1c2n[nH]c(=O)c3cc(F)cc(c23)N[C@@H]1c1ccc(F)cc1 + COc1c(OCCCN2CCOCC2)ccc2c3n(c(=NC(=O)c4cnc(N)nc4)nc12)CCN3
> 100 nM: IC50 (second compound 0.00316 µM) | IC50 (second compound 0.01 µM) | IC50 (second compound 0.0316 µM)
inactive: viability, T/C (second compound 0.00316 µM, first compound 0.000316 µM) 101% | viability, T/C (second compound 0.00316 µM, first compound 0.001 µM) 90.1% | viability, T/C (second compound 0.00316 µM, first compound 0.00316 µM) 88.8% | viability, T/C (second compound 0.00316 µM, first compound 0.01 µM) 92.6% | viability, T/C [1] 117% | viability, T/C [2] 92.8% | viability, T/C (second compound 0.01 µM, first compound 0.000316 µM) 99.3% | viability, T/C (second compound 0.01 µM, first compound 0.001 µM) 91.4% | viability, T/C (second compound 0.01 µM, first compound 0.00316 µM) 97.7% | viability, T/C (second compound 0.01 µM, first compound 0.01 µM) 92.5% | viability, T/C [7] 101% | viability, T/C [8] 95.4% | viability, T/C (second compound 0.0316 µM, first compound 0.000316 µM) 98.8% | viability, T/C (second compound 0.0316 µM, first compound 0.001 µM) 93.9% | viability, T/C (second compound 0.0316 µM, first compound 0.00316 µM) 84.2% | viability, T/C (second compound 0.0316 µM, first compound 0.01 µM) 86% | viability, T/C [13] 89.2% | viability, T/C [14] 97.6% | viability, T/C (second compound 0.1 µM, first compound 0.000316 µM) 46.5% | viability, T/C (second compound 0.1 µM, first compound 0.001 µM) 55.3% | viability, T/C (second compound 0.1 µM, first compound 0.00316 µM) 40.8% | viability, T/C (second compound 0.1 µM, first compound 0.01 µM) 49.5% | viability, T/C [19] 42% | viability, T/C [20] 38.8% | viability, T/C (second compound 0.316 µM, first compound 0.000316 µM) 20.3% | viability, T/C (second compound 0.316 µM, first compound 0.001 µM) 21.3% | viability, T/C (second compound 0.316 µM, first compound 0.00316 µM) 19.4% | viability, T/C (second compound 0.316 µM, first compound 0.01 µM) 22.2% | viability, T/C [25] 21.2% | viability, T/C [26] 18.5% | viability, T/C (second compound 1 µM, first compound 0.000316 µM) 14.1% | viability, T/C (second compound 1 µM, first compound 0.001 µM) 15.5% | viability, T/C (second compound 1 µM, first compound 0.00316 µM) 15.3% | viability, T/C (second compound 1 µM, first compound 0.01 µM) 15.7% | viability, T/C [31] 14.8% | viability, T/C [32] 12.6%
< 0.316 nM: IC50 (second compound 0.1 µM) | IC50 (second compound 0.316 µM) | IC50 (second compound 1 µM)
